Source: patent US11744844B2, “Selective estrogen receptor degraders” (Eli Lilly and Company, priority 2021, dated 2023)
Structures can show the parent of a compound that is named as a salt.

Experiments:
ERα = biological target: T1, ERα (Homo sapiens, UniProt P03372); experiment: ERα degradation assay in MCF7 cells; assay type: cell-based; settings: 24 hours incubation, read-out: Relative IC50, ERα degradation (% ER positive cells)
T1 construct: measure the degradation of ERα by a test compound in an ERα positive breast cancer cell line such as MCF7; host or cells: MCF7
T1 sequence (P03372 1-595): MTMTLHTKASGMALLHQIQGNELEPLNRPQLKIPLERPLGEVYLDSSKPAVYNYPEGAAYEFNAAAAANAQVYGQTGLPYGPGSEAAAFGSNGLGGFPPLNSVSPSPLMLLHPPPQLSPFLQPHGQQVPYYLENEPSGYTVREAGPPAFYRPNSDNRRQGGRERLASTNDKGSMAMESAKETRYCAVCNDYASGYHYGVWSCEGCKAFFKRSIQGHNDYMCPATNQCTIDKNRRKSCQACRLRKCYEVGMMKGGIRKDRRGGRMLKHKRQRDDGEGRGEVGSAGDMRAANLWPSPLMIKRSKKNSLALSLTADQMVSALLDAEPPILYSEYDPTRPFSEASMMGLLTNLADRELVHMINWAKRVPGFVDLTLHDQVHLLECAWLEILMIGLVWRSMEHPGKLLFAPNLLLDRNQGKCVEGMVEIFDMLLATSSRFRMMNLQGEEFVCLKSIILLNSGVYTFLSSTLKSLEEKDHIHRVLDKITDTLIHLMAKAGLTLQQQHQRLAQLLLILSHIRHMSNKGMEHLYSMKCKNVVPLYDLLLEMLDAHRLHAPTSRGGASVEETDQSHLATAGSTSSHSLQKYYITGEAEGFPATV
Procedure: The purpose of the following ERα degradation assay is to measure the degradation of ERα by a test compound in an ERα positive breast cancer cell line such as MCF7.
Culture MCF7 (purchased from ATCC HTB-22) cells in DMEM media supplemented with 10% FBS, 0.01 mg/mL human insulin 1 and 1% penicillin/streptomycin antibiotics and plate in 384-well flat-bottom plates at a density of 4,000 cells per well in phenol red free DMEM media (20 μL) containing 10% charcoal stripped FBS. Incubate the cells overnight in a cell culture incubator (5% CO2, 95% relative humidity and 37° C.) and allow the cells to attach to the plate. The following day dose the cells with the test compound. Use an Echo 555 acoustic dispenser to prepare test compound serial dilutions (1:3) in a range from 6 μM to 0.0003 μM. Dose the cells with the addition of 5 μL from the serial dilution plate to the cell plate producing a final DMSO concentration of 0.2% with a final test compound concentration dose range between 2 and 0.0001 μM. For the maximum point, use media containing 0.2% of DMSO and for the minimum point, use fulvestrant diluted at 2 μM final concentrations in the growth media containing 0.2% DMSO. […] Scan the plates with ACUMEN EXPLORER™ (Laser-scanning fluorescence microplate cytometer manufactured by TTP LABTECH LTD) to measure ERα. […]

[1] = test system: MCF7 ESR1 wild type cells; experiment: Cell proliferation assay in MCF7; assay type: cell-based; settings: Homo sapiens, 168 h, seven days, read-out: Relative IC50 MCF7 ESR1 wild type, cell proliferation
Procedure: The purpose of the following cell proliferation assays generally is to detect whether a test compound has effects on cell proliferation.
Seed MCF7 (purchased from ATCC HTB-22) cells at a density of 2,000 cells per well in DMEM phenol red free media 10% FBS (20 μL volume) (charcoal stripped) into a clear bottom 384-well cell culture plate. Plate MCF7-ESRY537N-682 (generated by CRISPR/Cas9 gene editing of ESr1 gene in MCF7 cells, clone #682) in DMEM media supplemented with 10% FBS, and 1% penicillin/streptomycin antibiotics at a density of 1000 cells per well. Incubate the plates at 37° C. and 5% CO2. The following day dose the cells with the test compound. Use an Echo 555 acoustic dispenser to prepare test compound serial dilutions (1:3) in a range from 60 μM to 0.003 μM. Dose the cells with the addition of 5 μL from the serial dilution plate to the cell plate, producing a final DMSO concentration of 0.2% with a final test compound concentration dose range between 20 and 0.001 μM. For the maximum point use media containing 0.2% of DMSO and for the minimum point use fulvestrant diluted at 2 μM final concentrations in the growth media containing 0.2% DMSO. After dosing with the test compound, incubate the cell plates at 37° C. and 5% CO2. […] Scan the plates with ACUMEN EXPLORER™ (Laser-scanning fluorescence microplate cytometer manufactured by TTP LABTECH LTD).

DC50 (ERα) [nM]	IC50 [1] [nM]	Compound
115 ± 18.4	518 ± 49.9	O=S(=O)(O)Oc1ccc2c3c(cnc2c1)-c1ccc(C(F)(F)F)cc1O[C@@H]3c1ccc(OCCN2CC(CF)C2)cc1 [Example 1, [(5R)-5-[4-[2-[3-(Fluoromethyl)azetidin-1-yl]ethoxy]phenyl]-8-(trifluoromethyl)-5H-chromeno[4,3-c]quinolin-2-yl]hydrogen sulfate]
211 ± 69.2	550 ± 238	O=C(O)[C@H]1O[C@@H](Oc2ccc3c4c(cnc3c2)-c2ccc(C(F)(F)F)cc2O[C@@H]4c2ccc(OCCN3CC(CF)C3)cc2)[C@H](O)[C@@H](O)[C@@H]1O [Example 2, (2S,3S,4S,5R,6S)-6-[[(5R)-5-[4-[2-[3-(Fluoromethyl)azetidin-1-yl]ethoxy]phenyl]-8-(trifluoromethyl)-5H-chromeno[4,3-c]quinolin-2-yl]oxy]-3,4,5-trihydroxy-tetrahydropyran-2-carboxylic acid]
